Laboratory results: US8946144B2, “Phosphonated glycopeptide and lipoglycopeptide antibiotics and uses thereof for the prevention and treatment of bone and joint infections” (The Medicines Company, priority 2006, dated 2015)
Converted amounts (≈) assume the structure as drawn.

Legend:
[1] = tested on: S. aureus strain ATCC13709; test: Antibacterial susceptibility (MIC) in CAMHB; assay type: cell-based; settings: S. aureus ATCC 13709; cation adjusted Mueller-Hinton broth; 37° C., 18 h
Experimental: (§1) Susceptibility of S. aureus strain ATCC13709 to the commercial antibiotics and synthesized compounds was determined by following the guidelines set by the Clinical and Laboratory Standards Institute (formerly the National Committee for Clinical Laboratory Standards) (M26-A). Compounds were diluted two-fold serially in either DMSO (Vancomycin 4, Oritavancin 8, compounds 10, 31, 33, 39, 44, 50, 60, 65), DMF (compounds 18 and 21) or in PBS (compound 6) and transferred to cation-adjusted Mueller Hinton broth (CAMHB; Becton Dickinson). 50 μL of compounds diluted in CAMHB was mixed with […] of bacteria diluted in CAMHB in 96-well microtiter plates. The final number of micro-organisms in the assay was 5×10^5 c.f.u. per mL and the final concentration of DMSO or DMF in the assay, if present, was 1.25%. Assays were set up in duplicate and incubated at 37° C. for 18 h. The concentration of compound that inhibited visible growth was reported as the minimum inhibitory concentration (MIC).

[2] = tested on: S. aureus strain ATCC13709; test: Antibacterial susceptibility (MIC) in the presence of 50% serum; assay type: cell-based; settings: S. aureus ATCC 13709
Experimental: as §1
Susceptibility testing experiments were also carried out in the presence of serum. These experiments were carried out similar to the susceptibility testing with the following modifications. 75 μL of compounds diluted in CAMHB was mixed with 75 μL of bacteria diluted in 100% serum from any given source (commercial pooled mouse serum (MS) and human serum (HS), Equitech-Bio Inc.). The final concentration of animal serum in the assay was 50% and the concentrations of all other components were identical to those described for susceptibility testing.

[3] = Regeneration of parent drug from bone powder-bound prodrug; assay type: in vitro ADME; settings: 24 h incubation, 37° C.
Experimental: Amounts of parent drug “regenerated” from the phosphonated prodrug were measured as follows. Washed bone powder-bound prodrugs from the above experiment were resuspended in 400 μL PBS+2% DMSO or in 400 μL 50% (v/v in PBS+2% DMSO) human or rat serum. The suspension was incubated overnight at 37° C., centrifuged at 13,000 rpm for 2 min and the supernatant was recovered. The amount of regenerated parent drug in the supernatant was determined by measurements using the microbiological assays that were previously described for the prodrugs themselves. The amount of released drug from prodrug was deduced from standard curves of known amounts of parent drug that were used as reference for each experiment. The amount of regenerated drug assessed by this bioassay was corroborated by MIC determination. The percentage of drug regenerated in PBS or serum after the overnight incubation (Table 2) was deduced from the difference between the amount of bound prodrug and the amount of regenerated drug (not shown).

Q: With CNC(CC(C)C)C(=O)NC1C(=O)NC(CC(N)=O)C(=O)NC2C(=O)NC3C(=O)NC(C(=O)NC(C(=O)OCC(=O)Nc4ccc(CC(P(=O)(O)O)P(=O)(O)O)cc4)c4cc(O)cc(O)c4-c4cc3ccc4O)C(O)c3ccc(c(Cl)c3)Oc3cc2cc(c3OC2OC(CO)C(O)C(O)C2OC2CC(C)(N)C(O)C(C)O2)Oc2ccc(cc2Cl)C1O (centres unmarked) [Compound 21] as the molecule, how does the “Minimum inhibitory concentration, CAMHB” value [1] read?
A: Its value is 16 µg/mL (≈ 9.04 µM).

Q: What about the “Minimum inhibitory concentration, CAMHB + 50% Human Serum” value [2] of the same molecule?
A: The value was 16 µg/mL.

Q: What about the “Minimum inhibitory concentration, CAMHB + 50% Mouse Serum” value [2] of the same molecule?
A: The value was 16 µg/mL.

Q: And the “Minimum inhibitory concentration, CAMHB + 50% Rat Serum” value [2]?
A: Its value is 32 µg/mL.

Q: What about the “% Conversion (prodrug converted to parent drug)” value (shortened to “% Conversion”) ([3]; 50% human serum) of the same molecule?
A: Its value is 3.5%.

Q: And the “% Conversion” value ([3]; 50% rat serum)?
A: The value was 4.1%.

Q: What about the “% Conversion” value ([3]; PBS) of the same molecule?
A: The value was 3.5%.

Q: With CC(C)C[C@H](C(=O)N[C@H]1C(=O)N[C@@H](CC(N)=O)C(=O)N[C@H]2C(=O)N[C@H]3C(=O)N[C@H](C(=O)N[C@H](C(=O)O)c4cc(O)cc(O)c4-c4cc3ccc4O)[C@H](O[C@H]3C[C@](C)(N)[C@@H](O)[C@H](C)O3)c3ccc(c(Cl)c3)Oc3cc2cc(c3O[C@@H]2O[C@H](CO)[C@@H](O)[C@H](O)[C@H]2O[C@H]2C[C@](C)(NCc3ccc(-c4ccc(Cl)cc4)cc3)[C@@H](O)[C@H](C)O2)Oc2ccc(cc2Cl)[C@H]1O)N(C)C(=O)CCC(P(=O)(O)O)P(=O)(O)O [Compound 39] as the molecule, how does the “Minimum inhibitory concentration, CAMHB” value [1] read?
A: Its value is >32 µg/mL.

Q: And the “Minimum inhibitory concentration, CAMHB + 50% Human Serum” value [2]?
A: The value was >32 µg/mL.

Q: What about the “Minimum inhibitory concentration, CAMHB + 50% Mouse Serum” value [2] of the same molecule?
A: The value was >32 µg/mL.

Q: And the “Minimum inhibitory concentration, CAMHB + 50% Rat Serum” value [2]?
A: The value was >32 µg/mL.

Q: What about the “% Conversion” value ([3]; 50% rat serum) of the same molecule?
A: The value was 0.9%.

Q: What about the “% Conversion” value ([3]; PBS) of the same molecule?
A: Its value is 0.01%.

Q: What does the source list for CNC(CC(C)C)C(=O)NC1C(=O)NC(CC(N)=O)C(=O)NC2C(=O)NC3C(=O)NC(C(=O)NC(C(=O)OCC(=O)NC(P(=O)(O)O)P(=O)(O)O)c4cc(O)cc(O)c4-c4cc3ccc4O)C(O)c3ccc(c(Cl)c3)Oc3cc2cc(c3OC2OC(CO)C(O)C(O)C2OC2CC(C)(N)C(O)C(C)O2)Oc2ccc(cc2Cl)C1O (centres unmarked) [Compound 18]?
A: Minimum inhibitory concentration, CAMHB [1]: 16 µg/mL (≈ 9.52 µM); Minimum inhibitory concentration, CAMHB + 50% Human Serum [2]: 8 µg/mL; Minimum inhibitory concentration, CAMHB + 50% Mouse Serum [2]: 16 µg/mL; Minimum inhibitory concentration, CAMHB + 50% Rat Serum [2]: 32 µg/mL; % Conversion (prodrug converted to parent drug) ([3]; 50% human serum): 2.34%; % Conversion (prodrug converted to parent drug) ([3]; 50% rat serum): 2.58%; % Conversion (prodrug converted to parent drug) ([3]; PBS): 2.09%
